In PMC10331583, “Control of fibrosis with enhanced safety via asymmetric inhibition of prolyl‐tRNA synthetase 1” (EMBO Molecular Medicine, 2023):
Where a chain is given by its changes, count along the chain named. Values joined by “and” are separate entries in the source; they are usually repeats but may differ in a detail not shown here. Equal entries are not always repeated. Where two headings read alike, the source gives them in different places.

Experiments:
[1] = test system: WI‐26 VA4 cells stably expressing PARS1 FA/EA/RL mutant; test: Collagen ELISA in cells stably expressing PARS1 mutant; conditions: for Collagen level, average: average of 4 experiments; for Collagen level, single replicates: replicates of Experiments #1-#4
[2] = target: T1, His‐PARS1 (Homo sapiens, UniProt P07814); test: Surface plasmon resonance (SPR); type: binding; conditions: read-out: KD
T1 construct: His‐PARS1 (1001–1,512 aa); made in house; host or cells: Escherichia coli
T1 sequence (P07814 1001-1512 limits assumed): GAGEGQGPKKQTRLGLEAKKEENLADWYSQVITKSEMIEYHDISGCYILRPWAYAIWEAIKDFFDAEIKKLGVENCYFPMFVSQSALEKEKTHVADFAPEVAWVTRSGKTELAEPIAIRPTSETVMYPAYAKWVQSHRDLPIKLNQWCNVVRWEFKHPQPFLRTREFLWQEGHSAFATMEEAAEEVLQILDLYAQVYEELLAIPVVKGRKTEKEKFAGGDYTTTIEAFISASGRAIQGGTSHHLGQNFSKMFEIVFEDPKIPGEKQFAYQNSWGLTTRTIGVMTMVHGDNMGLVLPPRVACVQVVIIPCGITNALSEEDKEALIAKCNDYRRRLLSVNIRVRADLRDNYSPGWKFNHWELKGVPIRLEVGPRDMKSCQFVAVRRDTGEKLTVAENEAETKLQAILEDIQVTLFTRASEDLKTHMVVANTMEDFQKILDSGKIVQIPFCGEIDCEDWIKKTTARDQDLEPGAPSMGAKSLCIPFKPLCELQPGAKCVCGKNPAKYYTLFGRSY

[3] = target: T2, PARS1 F1097A/E1123A/R1152L (FA/EA/RL) mutant (Homo sapiens, UniProt P07814, E1123A/F1097A/R1152L); test: Microscale thermophoresis (MST), PARS1 mutant; type: binding; conditions: for Fraction bound: single replicates
T2 construct: His‐PARS1 (1001–1,512 aa); made in house; host or cells: Escherichia coli
T2 sequence (P07814 1001-1512 F1097A/E1123A/R1152L): T1 sequence (P07814 1001-1512 limits assumed) with F97A, E123A, R152L

[4] = target: T3, PARS1 (Homo sapiens, UniProt P07814); test: In vitro prolylation assay; type: biochemical
T3 construct: His‐PARS1 (1001–1,512 aa); His; made in house; host or cells: Escherichia coli
T3 sequence (P07814 1001-1512 limits assumed): T1 sequence (P07814 1001-1512 limits assumed)
Experimental: The enzyme reaction was initiated by the addition of 100 nM purified His‐PARS1 (1001–1,512 aa). After 5 min, the reaction mixture was quenched on Whatman filter paper presoaked with 5% trichloroacetic acid (TCA). The filter papers were washed three times in 5% TCA for 10 min at 4°C and once in 100% ethanol for 10 min. The filter papers were dried, and radioactivity was quantified using liquid scintillation counter (LSC).
After 1 h, the reaction mixture was quenched on Whatman filter paper presoaked with 5% TCA. The filter papers were washed three times in 5% TCA for 10 min at 4°C and once in 100% ethanol for 10 min. The filter papers were dried, and radioactivity was quantified using LSC.

[5] = WI-26 VA4 Flag-PARS1 FA/EA/RL, 0.3 nM
[6] = WI-26 VA4 Flag-PARS1 FA/EA/RL, 1 nM
[7] = WI-26 VA4 Flag-PARS1 FA/EA/RL, 3 nM
[8] = WI-26 VA4 Flag-PARS1 FA/EA/RL, 10 nM
[9] = WI-26 VA4 Flag-PARS1 FA/EA/RL, 30 nM
[10] = WI-26 VA4 Flag-PARS1 FA/EA/RL, 100 nM
[11] = WI-26 VA4 Flag-PARS1 FA/EA/RL, 300 nM
[12] = WI-26 VA4 Flag-PARS1 FA/EA/RL, 1000 nM

O=C(CC1NCCCC1O)Cn1cnc2cc(Br)c(Cl)cc2c1=O (centres unmarked) [HF, Halofuginone, reference compound]
IC50 ([1]; Homo sapiens, WI26VA4, read-out: IC50, collagen level): 15.4 nM | Collagen level, average [1, 5]: 101.54 % of control | Collagen level, single replicates [1, 5]: 102.13 % of control and 120.79 % of control and 96.95 % of control and 94.78 % of control and 97.01 % of control and 91.61 % of control and 85.22 % of control and 99.08 % of control and 88.51 % of control and 103.40 % of control and 115.28 % of control and 123.69 % of control | Collagen level, average [1, 6]: 101.93 % of control | Collagen level, single replicates [1, 6]: 100.26 % of control and 124.52 % of control and 104.32 % of control and 114.35 % of control and 95.53 % of control and 102.09 % of control and 95.23 % of control and 96.53 % of control and 98.60 % of control and 104.60 % of control and 92.58 % of control and 94.60 % of control | Collagen level, average [1, 7]: 97.24 % of control | Collagen level, single replicates [1, 7]: 74.39 % of control and 119.08 % of control and 111.81 % of control and 77.98 % of control and 96.46 % of control and 94.83 % of control and 78.75 % of control and 99.39 % of control and 89.90 % of control and 103.30 % of control and 102.16 % of control and 118.87 % of control | Collagen level, average [1, 8]: 70.83 % of control | Collagen level, single replicates [1, 8]: 64.31 % of control and 91.60 % of control and 60.26 % of control and 74.23 % of control and 77.87 % of control and 69.39 % of control and 82.84 % of control and 75.26 % of control and 63.48 % of control and 78.01 % of control and 54.94 % of control and 57.79 % of control | Collagen level, average [1, 9]: 26.11 % of control | Collagen level, single replicates [1, 9]: 25.57 % of control and 24.68 % of control and 22.36 % of control and 32.03 % of control and 25.38 % of control and 25.85 % of control and 26.88 % of control and 24.32 % of control and 26.43 % of control and 20.94 % of control and 29.04 % of control and 29.85 % of control | Collagen level, average [1, 10]: 4.47 % of control | Collagen level, single replicates [1, 10]: 4.44 % of control and 3.82 % of control and 4.24 % of control and 4.79 % of control and 5.13 % of control and 4.94 % of control and 4.02 % of control and 4.80 % of control and 4.41 % of control and 3.44 % of control and 4.93 % of control and 4.63 % of control | Collagen level, average [1, 11]: 3.35 % of control | Collagen level, single replicates [1, 11]: 2.94 % of control and 2.13 % of control and 2.73 % of control and 2.78 % of control and 5.38 % of control and 5.19 % of control and 3.51 % of control and 3.53 % of control and 4.16 % of control and 2.06 % of control and 3.52 % of control and 2.22 % of control | Collagen level, average [1, 12]: 4.10 % of control | Collagen level, single replicates [1, 12]: 4.74 % of control and 3.22 % of control and 4.71 % of control and 3.16 % of control and 4.63 % of control and 4.53 % of control (2×) and 4.37 % of control and 4.67 % of control and 2.44 % of control and 4.55 % of control and 3.67 % of control | HillSlope, collagen level ([1]; WI-26 VA4 Flag-PARS1 FA/EA/RL, four-parameter fit): -1.829 | LogIC50, collagen level ([1]; WI-26 VA4 Flag-PARS1 FA/EA/RL, log of concentration in nM, four-parameter fit): 1.188 | Kd ([2]; + ATP (1 mM)): 178 nM | Kd ([2]; - ATP): 47900 nM | Fraction bound, average ([3]; Dose 3.0518 nM): -0.2588 | Fraction bound ([3]; Dose 3.0518 nM): -0.0691 and -0.4485 | Fraction bound, average ([3]; Dose 6.1035 nM): 0.0816 | Fraction bound ([3]; Dose 6.1035 nM): -0.1353 and 0.0688 and 0.3113 | Fraction bound, average ([3]; Dose 12.207 nM): -0.0324 | Fraction bound ([3]; Dose 12.207 nM): -0.1134 and -0.0549 and 0.0712 | Fraction bound, average ([3]; Dose 24.4141 nM): 0.1754 | Fraction bound ([3]; Dose 24.4141 nM): 0.2387 and 0.0706 and 0.2171 | Fraction bound, average ([3]; Dose 48.8281 nM): 0.0946 | Fraction bound ([3]; Dose 48.8281 nM): 0.0297 and 0.0849 and 0.1693 | Fraction bound, average ([3]; Dose 97.6563 nM): -0.0450 | Fraction bound ([3]; Dose 97.6563 nM): -0.0271 and 0.1069 and -0.2149 | Fraction bound, average ([3]; Dose 195.312 nM): 0.0503 | Fraction bound ([3]; Dose 195.312 nM): 0.0657 and 0.2487 and -0.1634 | Fraction bound, average ([3]; Dose 390.625 nM): -0.0697 | Fraction bound ([3]; Dose 390.625 nM): 0.2249 and -0.2797 and -0.1544 | Fraction bound, average ([3]; Dose 781.25 nM): 0.0626 | Fraction bound ([3]; Dose 781.25 nM): 0.0905 and 0.1699 and -0.0724 | Fraction bound, average ([3]; Dose 1562.5 nM): 0.4132 | Fraction bound ([3]; Dose 1562.5 nM): 0.3970 and 0.3491 and 0.4935 | Fraction bound, average ([3]; Dose 3125 nM): 0.2921 | Fraction bound ([3]; Dose 3125 nM): 0.2701 and 0.2589 and 0.3472 | Fraction bound, average ([3]; Dose 6250 nM): 0.4932 | Fraction bound ([3]; Dose 6250 nM): 0.1312 and 0.6482 and 0.7002 | Fraction bound, average ([3]; Dose 12500 nM): 0.6254 | Fraction bound ([3]; Dose 12500 nM): 0.5193 and 0.6344 and 0.7226 | Fraction bound, average ([3]; Dose 25000 nM): 0.6785 | Fraction bound ([3]; Dose 25000 nM): 0.6923 and 0.6116 and 0.7317 | Fraction bound, average ([3]; Dose 50000 nM): 0.8304 | Fraction bound ([3]; Dose 50000 nM): 1.1885 and 0.7220 and 0.5806 | Fraction bound, average ([3]; Dose 100000 nM): 1.0687 | Fraction bound ([3]; Dose 100000 nM): 0.9757 and 1.0430 and 1.1875 | IC50 ([4]; IC50, 1 μM Pro, 5 mM ATP): 24.5 nM | IC50 ([4]; IC50, 10 μM Pro, 5 mM ATP): 46.2 nM | IC50 ([4]; IC50, 100 μM Pro, 2.5 mM ATP): 137 nM | IC50 ([4]; IC50, 100 μM Pro, 5 mM ATP): 103 nM | IC50 ([4]; IC50, 100 μM Pro, 10 mM ATP): 101 nM | mode of PARS1 inhibition ([4]; IC50 at different proline and ATP concentrations): proline‐competitive and ATP‐uncompetitive
